Results taken from PubChem BioAssay AID1996.
Values after ≈ are worked out from the molar mass of the structure shown.

Settings: buffer; pH 7.4; 200.0 µM

solubility kinetic [µg/mL] | SMILES
3.8 (≈ 12.9 µM) | NC(=O)COc1ccc2cc(-c3ccccc3)c(=O)oc2c1
> 53.5 | Cn1c(C(=O)N[C@@H](Cc2ccccc2)C(=O)O)cc2cc(Cl)ccc21
< 0.7 | COc1ccc(C(=O)Nc2ccc3ccccc3c2)c(OC)c1
> 35.3 | O=C(Cc1ccsc1)Nc1ccccc1F
> 50.8 | Nc1ccc(Oc2ccc3c(c2)C(=O)N(CC2CCCO2)C3=O)cc1 (centres undefined)
> 49 | COc1cccc(CNC(=O)CC(NC(C)=O)c2ccccc2)c1 (centres undefined)
> 38.6 | CCCc1cc(=O)[nH]c(NCCc2ccccc2)n1
28 (≈ 130 µM) | CCc1nc(N=C(N)N)nc2ccccc12
45.1 (≈ 114 µM) | CSc1ccccc1NC(=O)CN(C)C(=O)COc1ncnc2ccccc12
45 (≈ 147 µM) | COc1ccc(NS(=O)(=O)c2ccc3c(c2)CCO3)cc1
6.4 (≈ 18.6 µM) | O=C(COc1ccccc1)N1CCN=C1SCc1ccc(F)cc1
> 48 | O=C1Nc2cc(Br)ccc2C1(O)c1ccccc1O (centres undefined)
> 38.9 | O=c1[nH]c(CSc2ncn[nH]2)nc2ccccc12
> 57.5 | O=C(NCCN1CCN(c2ccc([N+](=O)[O-])cc2)CC1)NCc1ccccc1
< 0.2 | CSc1ncc(Cl)c(C(=O)Nc2ccccc2[N+](=O)[O-])n1
> 47 | CCc1nc(N[C@H](C(=O)O)C(C)C)c2oc3ccccc3c2n1
> 44.4 | CC(=O)Cc1nsc(NC(=O)c2ccccc2Cl)n1

solubility kinetic [µg/mL] | SMILES
1 (≈ 3.4 µM) | COc1cccc2[nH]c(C(=O)NCCc3ccccc3)cc12
48.9 (≈ 144 µM) | CC(C)(C)NC(=O)COC(=O)C1c2ccccc2Oc2ccccc21
> 46.4 | CCOC(=O)c1ccc(N2C(=O)Cc3ccccc3C2=O)cc1
44.9 (≈ 138 µM) | CC(C(=O)NC(c1ccccc1)c1ccccc1)N1CCOCC1 (centres undefined)
> 61.4 | COc1ccc(C(CCNCc2ccc(OC)c(OC)c2)c2ccc(F)cc2)cc1 (centres undefined)
9 (≈ 22.2 µM) | O=C(Cc1csc(-c2ccccc2)n1)NCC(=O)Nc1ccc(F)c(F)c1F
10.8 (≈ 28.3 µM) | CC(C)(C)c1ccccc1NC(=O)c1cc(-c2ccncc2)nc2ccccc12
> 46.2 | COC(=O)c1ccc(C[n+]2ccccc2)cc1.[Br-]
0.5 (≈ 1.68 µM) | O=C(NCc1ccc2c(c1)OCO2)C(=O)Nc1ccccc1
> 48.9 | COP(=O)(OC)C(Nc1ccc(Cl)cc1)c1ccccc1 (centres undefined)
0.9 (≈ 2.93 µM) | CCc1cccc(C)c1N=Cc1c(O)c2ccccc2oc1=O
40.7 (≈ 124 µM) | Cn1c(=O)n(C)c2cc(NC(=O)COc3ccc(F)cc3)ccc21
> 40.4 | O=C(NCCCn1ccnc1)c1cc2ccccc2o1
> 47 | CC1Cc2ccccc2N1C(=O)Cn1cc([N+](=O)[O-])ccc1=O (centres undefined)
> 31.4 | Cc1ccc(-c2cn3cccnc3n2)cc1
5.1 (≈ 14.6 µM) | NC(=O)Nc1ccc(C(=O)OCC(=O)Nc2ccc(Cl)cn2)cc1

More lines, now with the values behind:

SMILES | solubility kinetic [µg/mL]
Cc1c(Cl)cccc1NC(=O)C1CCN(S(C)(=O)=O)CC1 | 16.9 (≈ 51.1 µM)
Cc1sc2ncnc(Sc3ccccc3C(=O)O)c2c1C | 46.9 (≈ 148 µM)
Cc1cc(NC(=O)C(C)C)ncc1NC(=O)c1ccco1 | > 43.1
O=C(O)CC(CC(=O)N1CCN(C(=O)c2ccco2)CC1)c1ccccc1 (centres undefined) | > 55.6
CC(C)(C)OC(=O)N1CCCN(C(=O)Nc2cccc(Cl)c2)CC1 | 51.4 (≈ 145 µM)
Cc1cc(NC(=O)CSc2nccn2-c2cccc(F)c2)no1 | > 49.9
O=C(Nc1cc([N+](=O)[O-])ccc1F)C1CCN(S(=O)(=O)c2cccs2)CC1 | 4.4 (≈ 10.6 µM)
COc1ccc(Cl)cc1C(=O)Nc1nc(C)cc(C)n1 | > 43.8
CCc1ccc(S(=O)(=O)Nc2ccc(Br)cn2)cc1 | 18.1 (≈ 53 µM)
Cl.N=C(N=C(N)N)N1CCOCC1 | > 31.1
O=C1N(CCCl)c2ccc(Br)cc2C12OCCO2 | 48.1 (≈ 145 µM)
O=C(CC12CC3CC(CC(C3)C1)C2)NC1CC1 | 30 (≈ 129 µM)
CCNC(=O)C(=O)Nc1cc2c3c(c1)CCN3C(=O)CC2 | > 43.1
CCCCN(CCCC)c1nc(-c2ccncc2)nc2ccccc12 | < 0.2
CC1(C)Cc2c(sc3c2c(N)nc(=S)n3Cc2ccccc2)CO1 | 2.3 (≈ 6.43 µM)
Cc1ccc(/C=N/NC(=O)c2cccnc2)o1 | > 34.4
CC1(c2ccc(NC(=O)c3ccccc3F)cc2)CC1(Cl)Cl (centres undefined) | < 0.7
CC(=O)Nc1ccc(N/C=C/C(=O)c2ccc(Cl)cc2)cc1 | 2.4 (≈ 7.62 µM)
CCCSc1nsc(NC(=O)c2cccnc2OCC)n1 | 0.5 (≈ 1.54 µM)
CC(=O)c1ccc(S(=O)(=O)Nc2ccc3c(c2)OCO3)cc1 | > 47.9
O=C(Nc1ccc(Cl)c(S(=O)(=O)N2CCOCC2)c1)c1ccc2c(c1)OCO2 | 2.6 (≈ 6.12 µM)
O=C(Nc1ccon1)c1ccc(Br)s1 | 5.5 (≈ 20.1 µM)
CCN(CC(=O)NCc1ccc(F)cc1)S(=O)(=O)c1ccc(Cl)s1 | 10.5 (≈ 26.9 µM)
COc1cc([N+](=O)[O-])ccc1NC(=S)N1CCOCC1 | > 44.6
O=C(O)c1ncc(Cl)c(Cl)c1Cl | 33.1 (≈ 146 µM)
O=C(NCCc1ccccc1)C1CCC(=O)N1C1CCCC1 (centres undefined) | > 45.1
